Like-named read-outs stand apart in the source and are kept apart here.
Tested on: HCV replicon (strain 1b) in HUH-7 cells
Test: HCV replicon FRET assay
Format: cell-based
Details: Hepatitis C virus
Excerpt: An HCV replicon whole cell system was established as described by Lohmann V, Korner F, Koch J, Herian U, Theilmann L, Bartenschlager R., Science 285(5424): 110-3 (1999). This system enabled us to evaluate the effects of our HCV Protease compounds on HCV RNA replication. Briefly, using the HCV strain 1b sequence described in the Lohmann paper (Assession number:AJ238799), an HCV cDNA was synthesized by Operon Technologies, Inc. (Alameda, Calif.), and the full-length replicon was then assembled in plasmid pGem9zf(+) (Promega, Madison, Wis.) using standard molecular biology techniques. The replicon consists of (i) the HCV 5′ UTR fused to the first 12 amino acids of the capsid protein, (ii) the neomycin phosphotransferase gene (neo), (iii) the IRES from encephalomyocarditis virus (EMCV), and (iv) HCV NS3 to NS5B genes and the HCV 3′ UTR. Plasmid DNAs were linearized with ScaI and RNA transcripts were synthesized in vitro using the T7 MegaScript transcription kit (Ambion, Austin, Tex.) according to manufacturer's directions. In vitro transcripts of the cDNA were transfected into the human hepatoma cell line, HUH-7. […] Resulting cell lines were characterized for positive and negative strand RNA production and protein production over time.
The HCV replicon FRET assay was developed to monitor the inhibitory effects of compounds described in the disclosure on HCV viral replication. HUH-7 cells, constitutively expressing the HCV replicon, were grown in Dulbecco's Modified Eagle Media (DMEM) (Gibco-BRL) containing 10% Fetal calf serum (FCS) (Sigma) and 1 mg/ml G418 (Gibco-BRL). Cells were seeded the night before (1.5×10^4 cells/well) in 96-well tissue-culture sterile plates. Compound and no compound controls were prepared in DMEM containing 4% FCS, 1:100 Penicillin/Streptomysin (Gibco-BRL), 1:100 L-glutamine and 5% DMSO in the dilution plate (0.5% DMSO final concentration in the assay). Compound/DMSO mixes were added to the cells and incubated for 4 days at 37° C. After 4 days, cells were first assessed for cytotoxicity using alamar Blue (Trek Diagnotstic Systems) for a CC50 reading. The toxicity of compound (CC50) was determined by adding 1/10th volume of alamar Blue to the media incubating the cells. After 4 h, the fluorescence signal from each well was read, with an excitation wavelength at 530 nm and an emission wavelength of 580 nm, using the Cytofluor Series 4000 (Perspective Biosystems). Plates were then rinsed thoroughly with Phosphate-Buffered Saline (PBS) (3 times 150 μl).

For `COc1ccc2c(O[C@@H]3C[C@H]4C(=O)N[C@]5(C(=O)NS(=O)(=O)C6CC6)C[C@H]5/C=C\CCCCC[C@H](Nc5ccc(OC)nc5)C(=O)N4C3)nccc2c1` (single isomer, unassigned) [Compound 1], the EC50 (96 h, HUH-7 replicon cells, 4 days, read-out: EC50 value in the replicon FRET assay) was 21 nM and the EC50 (Huh-7, Table 2, replicon assay variant and unit inferred, read-out: EC50) was 20.5 nM.
